In patent publication US20230116196A1, “METHOD OF TREATING CNS DISORDERS WITH NEU[…] GABAERGIC COMPOUNDS” (priority 2017, published 2023):

Legend:
[1] = tested on: GABAA receptor α4 and β3 subunits; experiment: Biotinylation: cell surface levels of GABAA receptor subunits in hippocampal slices; type: cell-based, mouse; conditions: for GABAA-β3-containing receptors at the plasma membrane / cell surface stability of the β3 subunit: acute hippocampal slices
Protocol: (§1) Hippocampi were dissected out of acute slices from 8 to 12 week old C57/Bl6 mice and lysed with […] including: 20 mM Tris-HCl, 150 mM NaCl, 5 mM EDTA, 10 mM NaF, 2 mM Na3VO4, 10 mM pyrophosphate, 0.1% SDS and 1% Triton after drug treatment. The β3 subunit was isolated using immunoprecipitation with β3 antibodies, after correction for protein content and the specific activity of labeling. Results were attained by SDS/PAGE followed by autoradiography (Abramian et al., 2010). For biotinylation experiments hippocampi were dissected out of acute slices from 8 to 12 week old C57/Bl6 mice and incubated in artificial cerebrospinal fluid (ACSF) described above at 30° C. for 1 h for recovery before experimentation. Slices were then placed on ice and incubated for 30 min with 1 mg/mL NHS-SS-biotin (Pierce). Excess biotin was removed by a 50 mM glycine quenching buffer, followed by washing of slices three times in ice-cold ACSF. The tissue was snap frozen on dry ice for 5 min, thawed at 4° C. and lysed. The lysates were solubilized with 2% Triton at 4° C. on a rotating wheel for 1 h. The insoluble material was removed by centrifugation, and 350-500 μg of protein lysate were incubated with NeutrAvidin beads (Pierce) for 18-24 h at 4° C. Bound material was eluted with sample buffer and subjected to SDS/PAGE and then immunoblotted with the indicated antibodies. Blots were then quantified using the CCD-based ChemiDoc XRS ? system. Antibodies against the β3 subunit and the phospho-β3 antibody were generated and verified by the laboratory of S.J.M. (Vien et al., 2015).
Hippocampal slices were treated as outlined above. Treated slices were then subject to biotinylation and lysis, and surface fractions were isolated on immobilized avidin. Surface (S) and total (T) fractions were immunoblotted with α4 and β3 subunit antibodies.
The ratio of surface/total (S/T) immunoreactivity was then normalized to levels seen in control (100%).

[2] = tested on: GABAA receptor β3 subunit S408/9; experiment: Immunoblot of β3 S408/9 phosphorylation in hippocampal slices; type: cell-based, mouse; conditions: 20 min exposure (100 nM in FIG. 6)
Protocol: Asterisks represent a significant difference from control (ALLO: p<0.01, Student's t-test, n=10 slices, from 10 mice; SGE-516: p<0.05, Student's t-test, n=4 slices, from 4 mice). […] Asterisks represent a significant difference from control (ALLO: p<0.05, Student's t-test, n=8 slices; SGE-516: p<0.05, Student's t-test, n=4 slices).
as §1
Treatment of hippocampal slices with SGE-516 increased the phosphorylation of S408/9 measured using pS408/9 antibodies. To produce antibodies specific for phosphorylated S443, rabbits were injected with a synthetic peptide corresponding to residues […] of the murine α4 subunit in which the serine residue corresponding to S443 was chemically phosphorylated; […]. Hippocampal slices were treated with vehicle (Con), or SGE-516 for 20 min. Slices were immunoblotted with pS408/9, β3, or actin antibodies. The ratio of pS408/9/β3 immunoreactivity was then normalized to control slices (100%=the line).
Hippocampal slices were treated with 100 nM ALLO or P4 (progesterone), and S408/9 phosphorylation was then determined as detailed above, n=4 slices (FIG. 18D). Hippocampal slices were treated with 100 nM ORG (FIG. 18E). S408/9 phosphorylation was examined using immunoblotting. […]

α4β3δ GABAA receptors = target: T1, α4β3δ GABAA receptors (Homo sapiens, UniProt O14764+P28472+P48169); experiment: Whole-cell patch clamp: potentiation of GABA EC20 currents at recombinant α4β3δ GABAA receptors; type: cell-based
T1 construct: expressed in transfected cells; host or cells: CHO cells, transiently transfected (Lipofectamine)
Protocol: Cellular electrophysiology was used to measure the pharmacological properties of ALLO, ganaxolone and SGE-516 in heterologous cell systems. Compounds were tested for their ability to affect GABA mediated currents at a submaximal agonist dose (GABA EC20=2 μM).
LTK cells were stably transfected with the α1β2γ2 subunits of the GABA receptor and CHO cells are transiently transfected with the α4β3γ subunits via the Lipofecatamine method. Cells were passaged at a confluence of about 50-80% and then seeded onto 35 mm sterile culture dishes containing 2 ml culture complete medium without antibiotics or antimycotics. Cells were cultivated at a density that enabled the recording of single cells without visible connections to other cells.
Whole-cell currents were measured with HEKA EPC-10 amplifiers using PatchMaster software. Bath solution for all experiments contained (in mM): NaCl 137, KCl 4, CaCl2 1.8, MgCl2 1, HEPES 10, D-Glucose 10, pH 7.4 with NaOH. Intracellular (pipette) solution contained (in mM): KCl 130, MgCl2 1, Mg-ATP 5, HEPES 10, EGTA 5, pH 7.2 with KOH. During experiments, cells and solutions were maintained at room temperature (19° C.-30° C.). For manual patchclamp recordings, cell culture dishes were placed on the dish holder of the microscope and continuously perfused (1 ml/min) with bath solution. After formation of a Gigaohm seal between the patch electrode and the cell (pipette resistance range: 2.5 MΩ-6.0MΩ; seal resistance range: >1 GΩ) the cell membrane across the pipette tip was ruptured to assure electrical access to the cell interior (whole-cell patch configuration).
Cells were voltage-clamped at a holding potential of −80 mV. GABAA receptors were activated by 2 μM GABA and compounds were sequentially applied at increasing concentrations for 30 s prior to a 2 s application of GABA. GABA and compounds were applied to cells via the Dynaflow perfusion system (Cellectricon, Sweden). Test compounds were dissolved in DMSO to form 10 mM stock solution and serially diluted to 0.01, 0.1, 1, and 10 μM in bath solution. There was no effect on GABA currents when DMSO was applied to cells at its maximal concentration in solution (0.1%). All concentrations of test compound were tested on each cell. The relative percentage potentiation was defined as the peak amplitude in response to GABA EC20 in the presence of test compound divided by the peak amplitude in response to GABA EC20 alone, multiplied by 100.
ALLO and ganaxolone are known PAMs of both synaptic and extrasynaptic GABAAR-mediated currents. The ability of candidate compound SGE-516 to act as a PAM was compared to ALLO and ganaxolone using the whole-cell recordings of recombinant human GABAA receptors expressed in mammalian cells. The α1β2γ2 or α4β3δ subunit combinations were chosen as representatives of typical synaptic and extrasynaptic GABAA receptors respectively. Similar to previous reports (Botella et al., 2015), ALLO, ganaxolone and SGE-516 allosterically potentiated currents induced by EC20 concentration of GABA in a concentration-dependent manner in both synaptic- and extrasynaptic-type GABAARs.

[3] = potentiation of current at GABA EC20 (2 μM), n = 3

T1 sequence (P48169 36-554): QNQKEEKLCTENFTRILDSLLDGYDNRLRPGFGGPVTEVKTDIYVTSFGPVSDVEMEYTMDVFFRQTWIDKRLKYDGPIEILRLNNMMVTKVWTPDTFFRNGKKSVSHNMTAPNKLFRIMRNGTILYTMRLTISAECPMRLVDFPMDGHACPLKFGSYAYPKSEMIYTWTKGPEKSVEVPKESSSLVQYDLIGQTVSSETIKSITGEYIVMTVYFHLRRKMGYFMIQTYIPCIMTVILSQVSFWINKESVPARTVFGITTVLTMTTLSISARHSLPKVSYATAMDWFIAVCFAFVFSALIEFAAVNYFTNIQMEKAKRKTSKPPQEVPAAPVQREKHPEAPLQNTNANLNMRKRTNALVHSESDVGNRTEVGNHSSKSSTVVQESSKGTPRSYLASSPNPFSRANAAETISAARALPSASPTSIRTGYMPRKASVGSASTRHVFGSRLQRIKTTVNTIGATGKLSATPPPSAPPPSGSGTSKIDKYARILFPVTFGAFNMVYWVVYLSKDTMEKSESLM
T1 sequence (P28472 26-473): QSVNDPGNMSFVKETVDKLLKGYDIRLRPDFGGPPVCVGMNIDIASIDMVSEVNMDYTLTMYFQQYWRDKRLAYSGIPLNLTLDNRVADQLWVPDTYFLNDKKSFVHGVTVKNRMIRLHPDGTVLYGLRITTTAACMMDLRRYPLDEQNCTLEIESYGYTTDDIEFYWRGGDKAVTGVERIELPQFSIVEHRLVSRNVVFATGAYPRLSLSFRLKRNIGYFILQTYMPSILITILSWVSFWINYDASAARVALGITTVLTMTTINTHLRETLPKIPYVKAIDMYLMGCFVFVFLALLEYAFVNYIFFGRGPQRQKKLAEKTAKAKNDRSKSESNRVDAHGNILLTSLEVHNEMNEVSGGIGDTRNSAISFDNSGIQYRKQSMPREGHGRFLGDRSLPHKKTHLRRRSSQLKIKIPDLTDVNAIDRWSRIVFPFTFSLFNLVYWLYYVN
T1 sequence (O14764 25-452): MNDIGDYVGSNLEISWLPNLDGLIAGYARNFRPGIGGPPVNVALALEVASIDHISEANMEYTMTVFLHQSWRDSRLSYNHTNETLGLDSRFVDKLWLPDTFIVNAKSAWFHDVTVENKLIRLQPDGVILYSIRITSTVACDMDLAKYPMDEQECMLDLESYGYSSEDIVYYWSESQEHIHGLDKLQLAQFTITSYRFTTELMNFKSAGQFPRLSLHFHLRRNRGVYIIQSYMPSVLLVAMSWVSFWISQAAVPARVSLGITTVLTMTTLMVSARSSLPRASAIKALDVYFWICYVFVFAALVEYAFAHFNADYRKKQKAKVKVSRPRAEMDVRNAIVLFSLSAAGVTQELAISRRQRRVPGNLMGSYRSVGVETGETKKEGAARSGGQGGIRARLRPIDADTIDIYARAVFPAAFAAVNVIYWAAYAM

Row | SMILES | GABAA-β3-containing receptors at the plasma membrane / cell surface stability of the β3 subunit ([1]; 100 nM) | β3 S408/409 phosphorylation in hippocampal slices [2] | pEC50 ± S.E.M., α4β3δ (α4β3δ GABAA receptors; [3]) | plasma membrane levels of GABAARs containing the α4 and β subunits, S/T normalized to control (100%) ([1]; WT mice slices, 100 nM, 20 min) | plasma membrane accumulation of both the α4 and β3 subunits ([1]; hippocampal slices, surface/total) | EC50 (α4β3δ GABAA receptors; [3]) [nM] | Emax ± S.E.M., α4β3δ (α4β3δ GABAA receptors; relative percentage potentiation of GABA EC20 current) [%]
1 | CC(=O)[C@H]1CC[C@H]2[C@@H]3CC[C@H]4C[C@H](O)CC[C@]4(C)[C@H]3CC[C@]12C [ALLO, Allopregnanolone] | increases | increases | 7.2 ± 0.3 |  |  |  | 
2 | CC(=O)[C@H]1CC[C@H]2[C@@H]3CC[C@H]4C[C@](C)(O)CC[C@]4(C)[C@H]3CC[C@]12C [Ganaxolone] |  |  | 7.0 ± 0.1 |  |  |  | 
3 | C[C@@]1(O)CC[C@@]2(C)[C@H](CC[C@@H]3[C@@H]2CC[C@]2(C)[C@@H](C(=O)Cn4nccn4)CC[C@@H]32)C1 [SGE-516] | increases | increases |  | 175-185% | increased | 193 | 505 ± 19
